Reference: patent publication US20260226048A1, “MULTI-CYCLIC IRAK AND FLT3 INHIBITING COMPOUNDS AND USES THEREOF” (CHILDREN'S HOSPITAL MEDICAL CENTER, priority 2023, published 2026)
Where two headings read alike, the source gives them in different places.

Legend:
[1] = test system: MOLM14 F691L cells; assay: MOLM14 F691L cell viability assay (Cell Titer Glo); assay type: cell-based; conditions: Homo sapiens, read-out: MOLM14 F691L IC50
Protocol: Both cell lines have activated FLT3 receptors, each of which carry additional resistance mutations in the kinase domain (D835Y and F691L, respectively).
For viability/cytotoxicity assessments, cells were seeded into 1536-well white polystyrene tissue culture-treated Greiner plates using a Multidrop Combi dispenser (ThermoFisher), in final volume 5 μL of growth media per well, at a density of 1000 cells per well. […] Plates were incubated for 48 hours at standard incubator conditions covered by a stainless steel gasketed lid to prevent evaporation. 48 hours post compound addition, 3 μL of Cell Titer Glo (Promega) were added to each well and plates were incubated at room temperature for 15 minutes with the stainless-steel lid in place. Luminescence readings were taken using a Viewlux imager (PerkinElmer) with a 2 second exposure time per plate.

[2] = test system: MOLM14 D835Y cells; assay: MOLM14 D835Y cell viability assay (Cell Titer Glo); assay type: cell-based; conditions: Homo sapiens, MOLM-14, 48 h, read-out: MOLM14 D835Y IC50
Summary of the method: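 MOLM14 cells with FLT3 D835Y or F691L kinase-domain resistance mutations seeded at 1000 cells/well and exposed to compound for 48 h under standard incubator conditions. Viability read by CellTiter-Glo luminescence after 15 min at room temperature.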

[3] = biological target: T1, FLT3 (Homo sapiens, UniProt P36888); assay: RBC HotSpot Kinase Assay, FLT3; assay type: biochemical; set-up: purchased Reaction Biology (RBC HotSpot); conditions: isolated kinase enzyme, 33P-ATP, P81 filter-binding
T1 sequence (P36888 27-993): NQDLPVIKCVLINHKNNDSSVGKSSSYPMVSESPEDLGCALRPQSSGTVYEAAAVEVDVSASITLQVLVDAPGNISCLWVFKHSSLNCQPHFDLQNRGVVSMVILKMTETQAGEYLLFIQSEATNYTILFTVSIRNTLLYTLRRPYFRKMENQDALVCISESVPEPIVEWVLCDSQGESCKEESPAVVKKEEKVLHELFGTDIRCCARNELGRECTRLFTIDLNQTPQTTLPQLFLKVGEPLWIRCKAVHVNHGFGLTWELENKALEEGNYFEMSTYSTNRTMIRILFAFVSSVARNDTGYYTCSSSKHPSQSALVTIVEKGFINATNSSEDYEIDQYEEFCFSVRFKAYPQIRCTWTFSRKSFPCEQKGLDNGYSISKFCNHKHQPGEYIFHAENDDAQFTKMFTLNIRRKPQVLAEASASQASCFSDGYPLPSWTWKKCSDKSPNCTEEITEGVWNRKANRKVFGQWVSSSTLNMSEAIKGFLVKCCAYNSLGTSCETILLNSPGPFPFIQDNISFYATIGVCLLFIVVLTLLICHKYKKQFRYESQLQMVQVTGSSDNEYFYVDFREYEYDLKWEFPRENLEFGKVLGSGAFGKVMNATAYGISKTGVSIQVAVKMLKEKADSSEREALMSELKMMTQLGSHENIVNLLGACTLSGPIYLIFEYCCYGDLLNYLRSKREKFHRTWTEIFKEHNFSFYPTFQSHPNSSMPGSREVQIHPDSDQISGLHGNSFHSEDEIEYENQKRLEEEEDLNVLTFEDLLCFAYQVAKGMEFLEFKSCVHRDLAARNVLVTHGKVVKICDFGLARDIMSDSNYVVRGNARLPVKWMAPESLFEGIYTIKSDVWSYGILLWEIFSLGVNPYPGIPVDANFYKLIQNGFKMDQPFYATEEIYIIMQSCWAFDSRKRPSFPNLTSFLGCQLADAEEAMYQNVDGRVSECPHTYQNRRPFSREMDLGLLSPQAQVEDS
Summary of the method: (§1)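 Radiometric HotSpot assay of catalytic activity with isolated recombinant kinase, possibly truncated or kinase domain only. Buffer: 20 mM Hepes pH 7.5, 10 mM MgCl2, 1 mM EGTA, 0.01% Brij35, 0.02 mg/ml BSA, 0.1 mM Na3VO4, 2 mM DTT, 1% DMSO, with cofactors specific to each kinase.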

[4] = biological target: T2, IRAK1 (Homo sapiens, UniProt P51617); assay: RBC HotSpot Kinase Assay, IRAK1; assay type: biochemical; conditions: isolated kinase enzyme, 33P-ATP, P81 filter-binding
T2 construct: purchased Reaction Biology (RBC HotSpot)
Summary of the method: as §1

[5] = biological target: T3, IRAK4 (Homo sapiens, UniProt Q9NWZ3); assay: RBC HotSpot Kinase Assay, IRAK4; assay type: biochemical; set-up: purchased Reaction Biology (RBC HotSpot); conditions: isolated kinase enzyme, 33P-ATP, P81 filter-binding
T3 sequence (Q9NWZ3 1-460): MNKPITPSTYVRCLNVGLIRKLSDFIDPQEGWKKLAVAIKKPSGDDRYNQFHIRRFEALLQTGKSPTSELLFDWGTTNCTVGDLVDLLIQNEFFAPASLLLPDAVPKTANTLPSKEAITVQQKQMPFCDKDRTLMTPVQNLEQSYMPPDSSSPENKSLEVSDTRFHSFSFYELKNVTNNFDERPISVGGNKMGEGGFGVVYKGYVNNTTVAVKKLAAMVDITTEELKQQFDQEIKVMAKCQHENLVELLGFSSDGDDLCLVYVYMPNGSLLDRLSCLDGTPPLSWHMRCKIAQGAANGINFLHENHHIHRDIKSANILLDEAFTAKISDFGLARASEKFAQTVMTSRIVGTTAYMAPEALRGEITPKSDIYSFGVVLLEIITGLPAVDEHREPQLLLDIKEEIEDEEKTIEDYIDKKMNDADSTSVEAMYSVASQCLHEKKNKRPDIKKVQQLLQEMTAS
Summary of the method: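 Radiometric filter-binding activity assay with isolated recombinant kinase (construct may be truncated or catalytic domain only) in 20 mM Hepes pH 7.5, 10 mM MgCl2, 1 mM EGTA, 2 mM DTT, 1% DMSO. Compound preincubated 20 min with kinase/substrate; reaction started with 33P-ATP, run 2 h at room temperature.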

[6] = MOLM-14, cell viability, Cell Titer Glo, 48 hours
[7] = cell viability, Cell Titer Glo, 48 hours

T2 sequence (P51617 whole entry): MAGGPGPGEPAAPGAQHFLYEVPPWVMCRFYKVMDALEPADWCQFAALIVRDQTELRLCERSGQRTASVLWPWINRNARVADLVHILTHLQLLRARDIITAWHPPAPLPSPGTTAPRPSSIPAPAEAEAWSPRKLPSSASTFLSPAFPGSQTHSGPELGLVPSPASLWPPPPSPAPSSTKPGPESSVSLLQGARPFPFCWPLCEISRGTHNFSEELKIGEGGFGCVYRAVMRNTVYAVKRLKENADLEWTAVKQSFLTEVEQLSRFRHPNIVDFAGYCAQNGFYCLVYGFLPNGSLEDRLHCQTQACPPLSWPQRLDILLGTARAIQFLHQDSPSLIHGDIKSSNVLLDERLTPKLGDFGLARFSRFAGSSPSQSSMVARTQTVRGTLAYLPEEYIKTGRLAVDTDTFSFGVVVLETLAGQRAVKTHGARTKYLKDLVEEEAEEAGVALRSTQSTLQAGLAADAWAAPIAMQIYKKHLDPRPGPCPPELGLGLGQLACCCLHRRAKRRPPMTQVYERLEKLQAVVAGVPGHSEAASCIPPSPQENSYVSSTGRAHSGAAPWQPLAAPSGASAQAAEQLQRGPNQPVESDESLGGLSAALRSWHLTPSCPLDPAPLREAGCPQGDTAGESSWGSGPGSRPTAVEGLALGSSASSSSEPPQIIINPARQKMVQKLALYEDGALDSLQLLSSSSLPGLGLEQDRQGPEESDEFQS

COc1cc2ncc(-c3nc(N[C@@H]4CCCNC4)ncc3F)n2nc1C1CCCC1 [Compound 62a, (R)-4-(6-cyclopentyl-7-methoxyimidazo[1,2-b]pyridazin-3-yl)-5-fluoro-N-(piperidin-3-yl)pyrimidin-2-amine]
IC50 [1, 6]: 9 nM | IC50 [2, 7]: 1 nM | IC50 [3]: < 0.5 nM | IC50 [4]: 0.6 nM | IC50 [5]: < 0.5 nM

COc1cc2ncc(-c3nc(N[C@H]4CNCC[C@@H]4F)ncc3F)n2nc1C1CCCC1 [Compound 63a, 4-(6-cyclopentyl-7-methoxyimidazo[1,2-b]pyridazin-3-yl)-5-fluoro-N-((3S,4S)-4-fluoropiperidin-3-yl)pyrimidin-2-amine]
IC50 [1, 6]: 13 nM | IC50 [2, 7]: 2 nM | IC50 [3]: < 0.5 nM | IC50 [4]: < 0.5 nM | IC50 [5]: < 0.5 nM

COc1cc2ncc(-c3nc(N[C@H]4CNC[C@@H]4F)ncc3F)n2nc1C1CCCCC1 [Compound 64a, 4-(6-cyclohexyl-7-methoxyimidazo[1,2-b]pyridazin-3-yl)-5-fluoro-N-((3S,4S)-4-fluoropyrrolidin-3-yl)pyrimidin-2-amine]
IC50 [1, 6]: 57 nM | IC50 [2, 7]: 6 nM | IC50 [3]: < 0.5 nM | IC50 [4]: < 0.5 nM | IC50 [5]: < 0.5 nM

COc1cc2ncc(-c3nc(N[C@@H]4CCCNC4)ncc3F)n2nc1C1CCCCC1 [Compound 65a, (R)-4-(6-cyclohexyl-7-methoxyimidazo[1,2-b]pyridazin-3-yl)-5-fluoro-N-(piperidin-3-yl)pyrimidin-2-amine]
IC50 [1, 6]: 18 nM | IC50 [2, 7]: 3 nM | IC50 [3]: < 0.5 nM | IC50 [4]: < 0.5 nM | IC50 [5]: < 0.5 nM

COc1cc2ncc(-c3nc(N[C@H]4CNCC[C@@H]4F)ncc3F)n2nc1C1CCCCC1 [Compound 66a, 4-(6-cyclohexyl-7-methoxyimidazo[1,2-b]pyridazin-3-yl)-5-fluoro-N-((3S,4S)-4-fluoropiperidin-3-yl)pyrimidin-2-amine]
IC50 ([1]; MOLM-14, 48 h): 28 nM | IC50 [2]: 4 nM | IC50 [3]: < 0.5 nM | IC50 [4]: < 0.5 nM | IC50 [5]: 0.6 nM

COc1cc2ncc(-c3nc(N[C@H]4CNC[C@@H]4F)ncc3F)n2nc1C12CC(C1)C2 [Compound 67a, 4-(6-(bicyclo[1.1.1]pentan-1-yl)-7-methoxyimidazo[1,2-b]pyridazin-3-yl)-5-fluoro-N-((3S,4S)-4-fluoropyrrolidin-3-yl)pyrimidin-2-amine]
IC50 [1, 6]: 57 nM | IC50 [2, 7]: 9 nM | IC50 [3]: < 0.5 nM | IC50 [4]: 1 nM | IC50 [5]: 0.9 nM

COc1cc2ncc(-c3nc(N[C@H]4CNCC[C@@H]4F)ncc3F)n2nc1C12CC(C1)C2 [Compound 69a, 4-(6-(bicyclo[1.1.1]pentan-1-yl)-7-methoxyimidazo[1,2-b]pyridazin-3-yl)-5-fluoro-N-((3S,4S)-4-fluoropiperidin-3-yl)pyrimidin-2-amine]
IC50 [1, 6]: 25 nM | IC50 [2, 7]: 3 nM | IC50 [3]: < 0.5 nM | IC50 [4]: 0.9 nM | IC50 [5]: 0.7 nM

COc1cc2ncc(-c3ccnc(N[C@H]4CNC[C@@H]4F)n3)n2nc1C1CC2(CCC2)C1 [Compound 75a, N-((3S,4S)-4-fluoropyrrolidin-3-yl)-4-(7-methoxy-6-(spiro[3.3]heptan-2-yl)imidazo[1,2-b]pyridazin-3-yl)pyrimidin-2-amine]
IC50 [1, 6]: 634 nM | IC50 [2, 7]: 63 nM | IC50 [3]: < 0.5 nM | IC50 [4]: 102 nM | IC50 [5]: 6 nM

COc1cc2ncc(-c3ccnc(N[C@@H]4CCCNC4)n3)n2nc1C1CC2(CCC2)C1 [Compound 76a, (R)-4-(7-methoxy-6-(spiro[3.3]heptan-2-yl)imidazo[1,2-b]pyridazin-3-yl)-N-(piperidin-3-yl)pyrimidin-2-amine]
IC50 [1, 6]: 1130 nM | IC50 [2, 7]: 101 nM | IC50 [3]: < 0.5 nM | IC50 [4]: 37 nM | IC50 [5]: 21 nM

COc1cc2ncc(-c3ccnc(N[C@H]4CNC[C@@H]4F)n3)n2nc1C1CCC1 [Compound 77a, 4-(6-cyclobutyl-7-methoxyimidazo[1,2-b]pyridazin-3-yl)-N-((3S,4S)-4-fluoropyrrolidin-3-yl)pyrimidin-2-amine]
IC50 [1, 6]: 142 nM | IC50 [2, 7]: 16 nM | IC50 [3]: < 0.5 nM | IC50 [4]: 12 nM | IC50 [5]: 1 nM

COc1cc2ncc(-c3ccnc(N[C@H]4CNC[C@@H]4F)n3)n2nc1C1CC(C)(C)C1 [Compound 80a, 4-(6-(3,3-dimethylcyclobutyl)-7-methoxyimidazo[1,2-b]pyridazin-3-yl)-N-((3S,4S)-4-fluoropyrrolidin-3-yl)pyrimidin-2-amine]
IC50 [1, 6]: 798 nM | IC50 [2, 7]: 90 nM | IC50 [3]: < 0.5 nM | IC50 [4]: 142 nM | IC50 [5]: 17 nM

COc1cc2ncc(-c3ccnc(N[C@@H]4CCCNC4)n3)n2nc1C1CC(C)(C)C1 [Compound 81a]
IC50 [1, 6]: 1260 nM | IC50 [2, 7]: 90 nM | IC50 [3]: < 0.5 nM | IC50 [4]: 49 nM | IC50 [5]: 55 nM

COc1cc2ncc(-c3ccnc(N[C@H]4CNC[C@@H]4F)n3)n2nc1C1CCCC1 [Compound 83a, 4-(6-cyclopentyl-7-methoxyimidazo[1,2-b]pyridazin-3-yl)-N-((3S,4S)-4-fluoropyrrolidin-3-yl)pyrimidin-2-amine]
IC50 [1, 6]: 113 nM | IC50 [2, 7]: 16 nM | IC50 [3]: < 0.5 nM | IC50 [4]: 8 nM | IC50 [5]: 0.6 nM

COc1cc2ncc(-c3ccnc(N[C@@H]4CCCNC4)n3)n2nc1C1CCCC1 [Compound 84a, (R)-4-(6-cyclopentyl-7-methoxyimidazo[1,2-b]pyridazin-3-yl)-N-(piperidin-3-yl)pyrimidin-2-amine]
IC50 [1, 6]: 113 nM | IC50 [2, 7]: 14 nM | IC50 [3]: < 0.5 nM | IC50 [4]: 18 nM | IC50 [5]: 2 nM

COc1cc2ncc(-c3ccnc(N[C@H]4CNCC[C@@H]4F)n3)n2nc1C1CCCC1 [Compound 85a, 4-(6-cyclopentyl-7-methoxyimidazo[1,2-b]pyridazin-3-yl)-N-((3S,4S)-4-fluoropiperidin-3-yl)pyrimidin-2-amine]
IC50 [1, 6]: 90 nM | IC50 [2, 7]: 11 nM | IC50 [3]: < 0.5 nM | IC50 [4]: 7 nM | IC50 [5]: 1 nM

COc1cc2ncc(-c3ccnc(N[C@H]4CNC[C@@H]4F)n3)n2nc1C1CCCCC1 [Compound 86a, 4-(6-cyclohexyl-7-methoxyimidazo[1,2-b]pyridazin-3-yl)-N-((3S,4S)-4-fluoropyrrolidin-3-yl)pyrimidin-2-amine]
IC50 [1, 6]: 142 nM | IC50 [2, 7]: 18 nM | IC50 [3]: < 0.5 nM | IC50 [4]: 16 nM | IC50 [5]: 1 nM
